Here are results for two compounds from patent publication US7943318B2, “Microrna-based methods and compositions for the diagnosis, prognosis and treatment of lung cancer” (The Ohio State University Research Foundation, priority 2006, dated 2011).

For test [1], the system named is MYO18B mRNA in lung cancer cell lines (H157, A549). The test can be described thus: MYO18B mRNA expression after treatment with 5-aza-dC and/or TSA, RT-PCR analysis. It is filed as cell-based, human. As to conditions: 1.0 μM, FIG. 12. The method, then:
FIG. 12 depicts the expression of MYO18B mRNA after treatment with 5-aza-dC and/or TSA in two lung cancer cell lines (H157, A549), as determined by RT-PCR analysis. Lane 1, no treatment; lane 2, treatment with 1.0 μM 5-aza-dC for 72 hr; lane 3, treatment with 1.0 μM TSA for 24 hr; lane 4, treatment with 1.0 μM 5-aza-dC for 72 hours, followed by treatment with 1.0 μM TSA for 24 hr. GAPDH expression served as a loading control.
A549 and NCI-H157 lung cancer cells (available from the American Tissue Culture Collection) were incubated with medium containing 1.0 μM 5-aza-dC (Sigma, St. Louis, Mo.) for 48 hr, then were incubated for an additional 24 hr in the presence of 1.0 μM TSA (Sigma, St. Louis, Mo.). Total RNA was isolated with TRIzol® Reagent (Invitrogen), and microarray analysis was performed as described above. Each treatment was performed in triplicate.
miRNA microarrays were used to analyze the expression of various miRNAs upon treatment with 5-aza-2′-deoxycytidine (5-aza-dC), a DNA methylation inhibitor, and/or Trichostatin A (TSA), a potent histone deacteylase inhibitor, in two lung cancer cell lines (A549 and NCI-H157).

Test [2] relates to miRNA expression in A549 and NCI-H157 lung cancer cells. The test can be described thus: miRNA microarray after treatment with 5-aza-dC and/or TSA. Type of test: cell-based, human. As to conditions: 1.0 μM, triplicate. The protocol: Microarray analysis was performed as previously described (Liu, C. G., et al., Proc. Natl. Acad. Sci. U.S.A. 101:9740-9744 (2004)). Briefly, 5 μg of total RNA was hybridized with miRNA microarray chips containing 352 probes in triplicate. Specifically, these chips contain gene-specific 40-mer oligonucleotide probes, spotted by contacting technologies and covalently attached to a polymeric matrix, which were generated from 161 human miRNAs, 84 mouse miRNAs, miRNAs from three other species and tRNA. The microarrays were hybridized in 6×SSPE (0.9 M NaCl/60 mM NaH2PO4.H2O/8 mM EDTA, pH 7.4)/30% formamide at 25° C. for 18 hr, washed in 0.75×TNT (Tris.HCl/NaCl/Tween 20) at 37° C. for 40 min, and processed using a method of direct detection of biotin-containing transcripts by streptavidin-Alexa647 conjugate (Molecular Probes, Carlsbad, Calif.). Processed slides were scanned using a PerkinElmer ScanArray XL5K Scanner, with the laser set to 635 nm, at Power 80 and PMT 70 setting, and a scan resolution of 10 μm. An average value of the three spot replicates for each miRNA was normalized and analyzed in BRB-ArrayTools version 3.2.3. After excluding negative values with hybridization intensity below background, normalization was performed by using a per chip on median normalization method and normalization to median array as reference. […]

With `Nc1ncn([C@H]2C[C@H](O)[C@@H](CO)O2)c(=O)n1` [5-aza-dC, 5-aza-2′-deoxycytidine], the “expression of MYO18B (transcriptionally-silenced gene) following treatment” value in test [1] was “increased expression”. The “changes in miRNA expression on microarray after treatment” value in test [2] is given as “no miRNAs from the microarray displayed statistically-significant changes in expression”.
As to `CC(/C=C/C(=O)NO)=C\[C@@H](C)C(=O)c1ccc(N(C)C)cc1` [TSA, Trichostatin A], in test [1], the “expression of MYO18B (transcriptionally-silenced gene) following treatment” value is reported as “increased expression”. For the same compound, the “changes in miRNA expression on microarray after treatment” value in test [2] is given as “no miRNAs from the microarray displayed statistically-significant changes in expression”.
